Patent publication US11299710B2, “Brown adipocyte progenitors in human skeletal muscle” (ENERGESIS PHARMACEUTICALS, INC., priority 2011, dated 2022)
Several values for one entry are separate records, joined by “and”; a condition that tells them apart may be missing. Equal values may be shown once.

Legend:
[1] = test system: human fetal muscle CD34+ cells; test: UCP1 mRNA expression by quantitative RT-PCR in cultured fetal muscle CD34+ cells; type: cell-based; details: rosiglitazone 1 μM
Procedure: UCP1 mRNA expression in fetal muscle CD34+ cells could be modulated by drug treatment. Cell-permeating cAMP derivatives strongly stimulated (7 to 8-fold) UCP1 mRNA expression in both primary cultured and expanded cells. The effects of cAMP derivatives, 8-bromo-cAMP, 0.25 mM or (4-chlorophenylthio)-cAMP, 0.25 mM (cAMP) on UCP1 mRNA expression in CD34+ cells in primary culture (PC) or expanded up to passage 3 (P3) are shown in FIG. 3B. All the cells were grown for 4-6 days in EGM2 medium and then placed for 8-12 days in the adipogenic medium described under Materials and Methods. The results are means±s.e.m. of arbitrary values normalized using the corresponding cyclophilin A values. […]
Rosiglitazone, a PPARγ agonist, had no effect in primary culture cells but strongly stimulated (8-fold) UCP1 mRNA expression in expanded cells. The results are expressed as in FIG. 3B (**p<0.01, n=4-7). […]
Total cell RNA was prepared using the kit NucleoSpin® RNAII (Clontech, Palo Alto, Calif.), Extract-all solution (Eurobio, Courtaboeuf, France) or PureLink RNA Isolation Kit (Invitrogen #12183-016) and quantified by Biophotometry (Biophotometer, Eppendorf). […]
Arbitrary units were determined by normalizing target mRNA levels to cyclophilin mRNA levels (based on Cts), wherein the cyclophilin levels were first divided by 100,000 for ease of reference. […]

[2] = test system: UCP1 mRNA in human skeletal muscle (vastus lateralis); test: UCP1 mRNA expression in skeletal muscle biopsies before and after rosiglitazone treatment in vivo
Procedure: Since the PPARγ agonist rosiglitazone was a strong inducer of UCP1 mRNA expression in muscle CD34+ cells in culture, the effect of this compound in vivo in humans was investigated. Vastus lateralis muscle biopsies from 7 obese patients with type 2 diabetes mellitus treated for the management of their metabolic syndrome with rosiglitazone were used. The biopsies were obtained before and after 8 weeks of treatment with rosiglitazone (2×4 mg per day). […] In that study rosiglitazone, concomitantly with the improvement in insulin sensitivity, increased the level of expression of UCP1 in muscle by about 1.6-fold. […] The results are the means±s.e.m. of arbitrary values normalized using the corresponding cyclophilin A values (n=7, *p<0.05 vs. control).
In FIG. 5, showing UCP1 mRNA levels in skeletal muscle biopsies from a patient group (n=7), “control” corresponds to levels before treatment, and “Rosi” corresponds to levels after treatment (8 weeks) with rosiglitazone. Being a longitudinal study the effect of rosiglitazone on UCP1 levels in each individual (comparison of individual values for the “control”-before and “Rosi”-after conditions) were determined. Starting with 25 ng cDNA (produced by reverse transcription of RNA) the threshold of detection (Ct) during real-time PCR was about 22 for UCP1 and about 18 for cyclophilin. The effect of rosiglitazone (UCP1 level at end of treatment vs. before treatment) were as follows: […]
Quantitative real-time PCR was performed using ABI rapid thermal cycler system and a SYBR Green PCR master mix (Applied Biosystems, Foster City, Calif.), or an ABI 7300 Real-time PCR instrument, a TaqMan Gene Expression Master Mix (Applied Biosystems #4369016) and TaqMan Gene Expression Pre-formulated Assays for human uncoupling protein-1 (GenBank NM_021833) (Applied Biosystems Assay ID Hs01084772_m1, TaqMan Gene Expression Assay part #4351372) and for human peptidylprolyl isomerase A “cyclophilin A” (GenBank NM_021130) (Applied Biosystems Assay ID Hs99999904_m1, TaqMan® Gene Expression Assay part #4448485). Cyclophilin A was used as a control to account for any variations due to the efficiency of the reverse transcription. The upstream and downstream oligonucleotide primers were chosen on both sides of an intron to prevent amplification of contaminating genomic DNA.
Primers used for real time quantitative PCR in human skeletal muscle are as follows:
Data are expressed as means±s.e.m. Significances were evaluated using the unpaired Student's t-test. A paired Student's t-test was used to determine the effects of rosiglitazone on human skeletal muscle UCP1 mRNA levels. Significances were set at p<0.05.

[3] = test system: human fetal muscle-derived CD31- cells; test: UCP1 mRNA expression by quantitative RT-PCR in CD31- cells; type: cell-based; details: day 16 of differentiation; normalized with cyclophilin A; rosiglitazone 1 microM in MDM from day 0; BMP7 6 nM 2 days before day 0 then MDM
Procedure: UCP1 mRNA expression in human fetal muscle-derived CD31− cells at day 16 of differentiation were measured.
All the cells were grown for 3 days in proliferation medium (EGM2) and then (on day 0) placed for 16 days in adipogenic differentiation medium (Minimal Differentiation Medium, MDM). The “EGM2” cells were maintained in EGM2 medium all along. Rosiglitazone (1 microM) was added from day 0 and kept in the medium until the end of the study. BMP7 (6 nM) was added 2 days before day 0 and removed at day 0. Effects of differentiation medium (MDM vs. EGM2), rosiglitazone (MDM+rosi vs. MDM) and BPM7 (MDM+BMP7 vs. MDM) are shown as fold change (as compared to EGM2 cells) on UCP1 mRNA expression in human muscle-derived brown adipocyte progenitor cells (CD31-). […]
Quantitative real-time PCR was performed using ABI rapid thermal cycler system and a SYBR Green PCR master mix (Applied Biosystems, Foster City, Calif.), or an ABI 7300 Real-time PCR instrument, a TaqMan Gene Expression Master Mix (Applied Biosystems #4369016) and TaqMan Gene Expression Pre-formulated Assays for human uncoupling protein-1 (GenBank NM_021833) (Applied Biosystems Assay ID Hs01084772_m1, TaqMan Gene Expression Assay part #4351372) and for human peptidylprolyl isomerase A “cyclophilin A” (GenBank NM_021130) (Applied Biosystems Assay ID Hs99999904_m1, TaqMan® Gene Expression Assay part #4448485). […]

CD31- cells = test: Quantification of UCP1 protein by fluorescence immunohistochemistry in CD31- cells; type: cell-based, human; details: rosiglitazone 1 μM in MDM from day 0, 15 days
Text: Using this method, UCP1 staining can be evaluated using automated high content imaging. GE Healthcare's InCell 1000 High Content Imager combines automated microscopy with high content image analysis software (InCell Developer Toolbox). The reference compound rosiglitazone was used to promote the differentiation of the CD31− cells and increase the expression of UCP1. Using a primary antibody that recognizes UCP1, Abcam ab23841, and a secondary antibody, Alexafluor 488 goat anti-rabbit antibody, we can quantify relative UCP1 levels per cell.
Referring to FIGS. 17A-17B, culturing and differentiation of CD31− cells into brown adipocytes were performed as described in Methods without (FIG. 17A) or with (FIG. 17B) rosiglitazone (1 μM) added to the adipogenic medium (MDM) from day 0. […] Alexafluor 488 goat anti-rabbit antibody was used to quantify relative UCP1 levels (green). […] UCP1 signal intensity was measured using the GE Developer Toolbox software on images collected on the InCell 1000 Automated High Content Imager. […]
Culturing and differentiation of CD31− cells into brown adipocytes were performed using adipogenic differentiation medium lacking (Minimal Differentiation Medium, MDM) or containing 1 μM rosiglitazone (Reference Differentiation Medium, RDM). […] As a readout, total intensity of UCP1 signal within the cell was used, normalized to cell number.

[4] = test system: CD31- cells (CD34+/CD45-/CD56-/CD146-/CD31-) from human fetal skeletal muscle; test: Differentiation of CD31- cells into adipocyte-like multilocular cells / brown adipocytes; type: cell-based
Procedure: (§1) With the aim of further purifying the CD34+ cells in search for the purest physiological brown adipocyte progenitors, stroma-vascular cells were purified from two independent samples of human fetal skeletal muscle (18-19 weeks of gestation). Following the CD45, CD56, CD34, and CD146 sorting described above, an additional step of FACS sorting using an anti-CD31 antibody was performed. The cells were sorted based on the presence of the mature endothelial cell surface marker CD31 (CD31+) or absence of that marker (CD31-). It was hypothesized that the CD31− subpopulation may be a purer progenitor of human brown adipocytes. The CD31− cell fraction amounted to about 80% of the CD34+ cell population derived from skeletal muscle. For purpose of simplicity, CD34+/CD45−/CD56−/CD146−/CD31− are called “CD31−” cells [EMC309 (CD31−) and EMC314 (CD31−)]. CD34+/CD45−/CD56−/CD146−/CD31+ are called “CD31+” cells [EMC309 (CD31+) and EMC314 (CD31+)]. In addition, the myogenic progenitor cells expressing the cell surface antigen CD56 (CD56+) were also sorted and cultured: CD34+/CD45−/CD56+ (from EMC314) and CD45−/CD56+ (from EMC309) are called “CD56+” cells [EMC309 (CD56+) and EMC314 (CD56+)].
(§2) The sorted cells (CD31−, CD31+, and CD56+ cell populations) were grown under the same conditions as described above, i.e., 2-4 days in proliferation medium (EGM2) and 10-16 days in adipogenic differentiation medium. […]

[5] = test system: CD31+ cells (CD34+/CD45-/CD56-/CD146-/CD31+); test: Differentiation of CD31+ cells in adipogenic medium; type: cell-based, human; details: MDM with or without rosiglitazone or BMP7
Procedure: as §1, §2

CD56+ cells = test: Differentiation of CD56+ cells in adipogenic medium; type: cell-based, human; details: MDM with or without rosiglitazone or BMP7
Procedure: as §1, §2

CN(CCOc1ccc(CC2SC(=O)NC2=O)cc1)c1ccccn1 (centres unmarked) [rosiglitazone]
stimulation of UCP1 mRNA expression ([1]; expanded cells (P3), vs untreated control): 8 fold | effect on UCP1 mRNA expression ([1]; primary culture cells (PC)): no effect | increase of level of expression of UCP1 in muscle ([2]; 7 obese type 2 diabetes patients, 8 weeks, 2×4 mg per day, group mean, after vs before treatment): about 1.6 fold | increase of UCP1 level at end of treatment vs. before treatment ([2]; individual patients 1-7, 8 weeks rosiglitazone 2×4 mg per day): 180% and 8% and 310% and 10% and 50% and 80% | UCP1 mRNA level after treatment, normalized to cyclophilin A ([2]; individual patients 1-7, after 8 weeks rosiglitazone): 730 arbitrary units and 600 arbitrary units and 556 arbitrary units and 142 arbitrary units and 652 arbitrary units and 453 arbitrary units and 677 arbitrary units | UCP1 level at end of treatment relative to control (before treatment) ([2]; individual patients 1-7, control = 100%): 280% and 108% and 410% and 110% and 150% and 100% and 180% | increase of UCP1 expression compared to EGM2 control condition [3]: 507-553 fold | UCP1 intensity per nucleus (CD31- cells): 105,542 | increase of level of UCP1 protein (CD31- cells; vs without rosiglitazone): 7 fold

B1: BMP7: recombinant human bone morphogenic protein-7 from R&D Systems (protein, UniProt P18075 293-431, looked up)
Bone morphogenetic protein 7: STGSKQRSQNRSKTPKNQEALRMANVAENSSSDQRQACKKHELYVSFRDLGWQDWIIAPEGYAAYYCEGECAFPLNSYMNATNHAIVQTLVHFINPETVPKPCCAPTQLNAISVLYFDDSSNVILKKYRNMVVRACGCH
differentiation of CD31- cells into brown adipocytes ([4]; 6 nM, before induction of differentiation (day -3 or -2 to day 0)): strongly promoted | fraction of CD31- cells differentiated into adipocyte-like multilocular cells ([4]; MDM containing the compound): virtually all | increase of UCP1 expression compared to EGM2 control condition [3]: 78-127 fold | differentiation of CD31+ cells into adipocyte-like multilocular cells [5]: did not differentiate | differentiation of CD56+ cells into adipocyte-like multilocular cells (CD56+ cells): did not differentiate
